Data reported in US20140371262A1, “PREVENTIVE AND/OR THERAPEUTIC AGENT FOR THROMBOEMBOLISM IN THROMBOEMBOLISM PATIENT WITH SEVERE RENAL IMPAIRMENT” (Daiichi Sankyo Company, Limited, priority 2011, published 2014).

Key:
[1] = tested on: NVAF patients; assay: Late phase-II trial targeting NVAF patient in Japan (thromboembolic and bleeding events, 12 weeks); format: in vivo, human; settings: for Bleeding events, subjects with event/subjects / Incidence of bleeding events (major, clinically relevant non-major and minor bleeding in total): all subjects
[2] = tested on: NVAF patient with severe renal impairment or with normal renal functions or mild renal impairment; assay: Phase-III trial targeting NVAF patient with severe renal impairment; settings: for Any bleeding events (adjudicated), incidence / Any bleeding events (adjudicated), number of subjects with events / Clinically relevant non-major bleeding events, incidence / Clinically relevant non-major bleeding events, number of subjects with events / Major bleeding events, incidence / Major bleeding events, number of subjects with events: 12 weeks
[3] = tested on: patients with moderate to-high-risk atrial fibrillation; assay: ENGAGE-AF TIMI-48 phase 3 study of edoxaban versus warfarin in atrial fibrillation
[4] = 60 mg×1/day, 12 weeks, CLCR < 30 mL/min
[5] = each edoxaban group (30, 45, 60 mg) vs warfarin group
[6] = Normal/MiRI (CLCR 50 mL/min or higher), high-dose 60 mg once a day
[7] = Normal/MiRI (CLCR 50 mL/min or higher), low-dose 30 mg once a day
[8] = SRI (CLCR 15 to <30 mL/min), edoxaban 15 mg once a day
[9] = any of the treatment groups (SRI 15 mg, Normal/MiRI 30 mg, 60 mg)
[10] = high-dose edoxaban (60 mg once daily, halved per criteria)
[11] = low-dose edoxaban (30 mg once daily, halved per criteria)
[12] = subgroup whose CLCR had become <30 mL/min during the trial, edoxaban 15 mg (N = 349), warfarin dose adjusted (N = 367)

With `CN1CCc2nc(C(=O)N[C@@H]3C[C@@H](C(=O)N(C)C)CC[C@@H]3NC(=O)C(=O)Nc3ccc(Cl)cn3)sc2C1` [edoxaban, N^1-(5-chloropyridin-2-yl)-N^2-((1S,2R,4S)-4-[(dimethylamino)carbonyl]-2-{[(5-methyl-4,5,6,7-tetrahydrothiazolo[5,4-c]pyridin-2-yl)carbonyl]amino}cyclohexyl)ethanediamide] the “Incidence of bleeding event (major, clinically relevant non-major and minor bleeding in total)” value [1, 4] was 100.0%, the “Incidence of major bleeding or clinically relevant non-major bleeding” value [1, 4] was 0% and the “Major bleeding or clinically relevant non-major bleeding, subjects with event/subjects” value [1, 4] was “(0/1)”. For the same compound, the “Incidence of bleeding events compared with the warfarin group” value [1, 5] was “No statistically significant difference”, the “Incidence of major bleeding, or of major bleeding or clinically relevant non-major bleeding, compared with the warfarin group” value [1, 5] was “not statistically significantly different” and the “Bleeding events, subjects with event/subjects” value ([1]; edoxaban 30 mg group, 12 weeks) was 24/130. The “Incidence of bleeding events (major, clinically relevant non-major and minor bleeding in total)” value ([1]; edoxaban 30 mg group, 12 weeks) was 18.5%, the “Major bleeding, incidence” value ([1]; edoxaban 45 mg group, 12 weeks) was 2.2% and the “Major bleeding, number of subjects” value ([1]; edoxaban 45 mg group, 12 weeks) was 3 subjects. The “Bleeding events, subjects with event/subjects” value ([1]; edoxaban 45 mg group, 12 weeks) was 30/134, the “Incidence of bleeding events (major, clinically relevant non-major and minor bleeding in total)” value ([1]; edoxaban 45 mg group, 12 weeks) was 22.4% and the Thromboembolic events ([1]; edoxaban 45 mg group, 12 weeks, the only thromboembolic event of the trial) was “one cerebral infarction”. The “Major bleeding, incidence” value ([1]; edoxaban 60 mg group, 12 weeks) was 1.5%, the “Major bleeding, number of subjects” value ([1]; edoxaban 60 mg group, 12 weeks) was 2 subjects and the “Bleeding events, subjects with event/subjects” value ([1]; edoxaban 60 mg group, 12 weeks) was 36/130. The “Incidence of bleeding events (major, clinically relevant non-major and minor bleeding in total)” value ([1]; edoxaban 60 mg group, 12 weeks) was 27.7%, the “Bleeding compared to the low dose or high dose in patients with Normal/miRI” value ([2]; 15 mg of edoxaban for 12 weeks in patients with SRI) was “did not result in a marked increase in bleeding” and the “Any bleeding events (adjudicated), incidence” value [2, 6] was 23.8%. For the same compound, the “Any bleeding events (adjudicated), number of subjects with events” value (from here on “Any bleeding events … with events”) [2, 6] was 5, the “Clinically relevant non-major bleeding events, incidence” value [2, 6] was 4.8% and the “Clinically relevant non-major bleeding events, number of subjects with events” value [2, 6] was 1. The “Major bleeding events, incidence” value [2, 6] was 0.0%, the “Major bleeding events, number of subjects with events” value [2, 6] was 0 and the “Any bleeding events (adjudicated), incidence” value [2, 7] was 22.7%. The “Any bleeding events … with events” value [2, 7] was 5, the “Clinically relevant non-major bleeding events, incidence” value [2, 7] was 0% and the “Clinically relevant non-major bleeding events, number of subjects with events” value [2, 7] was 0. For the same compound, the “Major bleeding events, incidence” value [2, 7] was 0.0%, the “Major bleeding events, number of subjects with events” value [2, 7] was 0 and the “Difference in the incidence of any adjudicated bleeding events” value ([2]; SRI 15-mg edoxaban group vs Normal/MiRI low-dose (30-mg) or high-dose (60-mg) group) was “No notable difference”. For the same compound, the “Any bleeding events (adjudicated), incidence” value [2, 8] was 20.0%, the “Any bleeding events … with events” value [2, 8] was 10 and the “Clinically relevant non-major bleeding events, incidence” value [2, 8] was 0%. The “Clinically relevant non-major bleeding events, number of subjects with events” value [2, 8] was 0, the “Major bleeding events, incidence” value [2, 8] was 0.0% and the “Major bleeding events, number of subjects with events” value [2, 8] was 0. The “Relation of the serious adverse events to the study drug” value ([2]; all serious adverse events were reported in the SRI 15-mg group) was “considered unrelated to the study drug”, the Deaths ([2]; any of the treatment groups) was “No deaths were reported” and the “Adjudicated major bleeding events” value [2, 9] was “No adjudicated major bleeding events occurred”. For the same compound, the “Thromboembolic events (cerebral infarction and systemic embolism)” value [2, 9] was “No cerebral infarction or systemic embolism occurred”, the “Efficacy, safety and composite primary endpoint comprising ACM compared with warfarin” value ([3]; 15 mg dose regimen of edoxaban, subgroup CLCR <30 mL/min) was “noninferior to warfarin” and the “Prevention of stroke or systemic embolism compared with warfarin” value ([3]; both once-daily regimens of edoxaban) was “noninferior to warfarin”. The “Hazard ratio vs warfarin, death from cardiovascular causes” value ([3]; high-dose edoxaban) was 0.86, the “Hazard ratio vs warfarin, key secondary end point” value ([3]; high-dose edoxaban) was 0.87 and the “Hazard ratio vs warfarin, major bleeding” value ([3]; high-dose edoxaban) was 0.80. For the same compound, the “Hazard ratio vs warfarin, primary end point during treatment” value ([3]; high-dose edoxaban) was 0.79, the “Hazard ratio vs warfarin, primary end point, intention-to-treat analysis” value ([3]; high-dose edoxaban) was 0.87 and the “Annualized rate of death from cardiovascular causes” value [3, 10] was 2.74%. For the same compound, the “Annualized rate of major bleeding” value [3, 10] was 2.75%, the “Annualized rate of the primary end point (stroke or systemic embolism) during treatment” value [3, 10] was 1.18% and the “Rate of the key secondary end point (composite of stroke, systemic embolism, or death from cardiovascular causes)” value [3, 10] was 3.85%. The “Hazard ratio vs warfarin, death from cardiovascular causes” value ([3]; low-dose edoxaban) was 0.85, the “Hazard ratio vs warfarin, key secondary end point” value ([3]; low-dose edoxaban) was 0.95 and the “Hazard ratio vs warfarin, major bleeding” value ([3]; low-dose edoxaban) was 0.47. The “Hazard ratio vs warfarin, primary end point during treatment” value ([3]; low-dose edoxaban) was 1.07, the “Hazard ratio vs warfarin, primary end point, intention-to-treat analysis” value ([3]; low-dose edoxaban) was 1.13 and the “Annualized rate of death from cardiovascular causes” value [3, 11] was 2.71%. For the same compound, the “Annualized rate of major bleeding” value [3, 11] was 1.61%, the “Annualized rate of the primary end point (stroke or systemic embolism) during treatment” value [3, 11] was 1.61% and the “Rate of the key secondary end point (composite of stroke, systemic embolism, or death from cardiovascular causes)” value [3, 11] was 4.23%. The “ACM (all cause mortality): # of events” value [3, 12] was 12, the “ACM (all cause mortality): Event Rate” value [3, 12] was 1.95 %/yr and the “Disabling Stroke: # of events” value [3, 12] was 3. The “Disabling Stroke: Event Rate” value [3, 12] was 0.49 %/yr, the “Fatal Bleed: # of events” value [3, 12] was 2 and the “Fatal Bleed: Event Rate” value [3, 12] was 0.33 %/yr. The “Fatal SEE: # of events” value [3, 12] was 0, the “Fatal SEE: Event Rate” value [3, 12] was 0.00 %/yr and the “Fatal Stroke: # of events” value [3, 12] was 2. For the same compound, the “Fatal Stroke: Event Rate” value [3, 12] was 0.33 %/yr, the “First Disabling or Fatal Stroke, Fatal SEE, LT or Fatal Bleed, or ACM: # of events” value [3, 12] was 19 and the “First Disabling or Fatal Stroke, Fatal SEE, LT or Fatal Bleed, or ACM: Event Rate” value [3, 12] was 3.10 %/yr. For the same compound, the “First Stroke, SEE or TIA: # of events” value [3, 12] was 15, the “First Stroke, SEE or TIA: Event Rate” value [3, 12] was 2.48 %/yr and the “First Stroke, SEE, Major Bleed, or ACM: # of events” value [3, 12] was 39. The “First Stroke, SEE, Major Bleed, or ACM: Event Rate” value [3, 12] was 6.46 %/yr, the “LT Bleed (life threatening): # of events” value [3, 12] was 2 and the “LT Bleed (life threatening): Event Rate” value [3, 12] was 0.33 %/yr.
